Assay results taken from PubChem BioAssay AID2060345 (Molecular Pharmacology Branch, DTP, NCI, 2025).
Values joined by “and” are separate entries in the source; they are usually repeats but may differ in a detail not shown here. Equal values may be shown once.

System: MALME-3M multicell spheroids, viability
Experiment: Anticancer human tumor MALME-3M cell line growth inhibition [TAK];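 also: spheroids exposed to drugs for seven days before readout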;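 as to viability, T/C: 100% = DMSO vehicle control viability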
Settings: for viability, T/C: stronger effect = lower value
Source text: Combinatorial screen of targeted agents with TAK-243 and ipatasertib in multi-cell type tumor spheroids
A high-throughput screen of multi-cell type tumor spheroids was designed to identify active combinations of targeted small molecules and TAK-243 or ipatasertib. Complex spheroids include a stromal component modeled by human endothelial cells (HUVEC) and fibroblasts modeled by human mesenchymal stem cells (MSCs). The concentration ranges selected for each drug and investigational agent were based upon clinically achievable concentrations if the clinical Cmax of the agent was known.
Compounds. The drugs and investigational agents: TAK-243 (785004), ipatasertib (767898), everolimus (733504), selumetinib (741078), bortezomib (756655), trametinib (758246), ixazomib (758254), vemurafenib (761431), dabrafenib (764134), sapanisertib (764658), alpelisib (765974), and copanlisib (816437), were obtained from the National Cancer Institute (NCI) Developmental Therapeutics Program Chemical Repository. The FDA-approved anticancer drug set is available from the NCI Developmental Therapeutics Program. […] The stock solutions were prepared in dimethyl sulfoxide (DMSO, Sigma-Aldrich, St. Louis, MO, cat. D2650) at 800-fold the tested concentration and stored at -70 degrees C prior to their use. All drugs and investigational agents were tested over a range starting from a high concentration at or near the clinical Cmax and decreasing in half-log increments. If the clinical Cmax for an agent had not been determined, the highest concentration tested was 10 microM.
NCI60 Cell Culture. NCI60 cell lines were obtained from the NCI Developmental Therapeutics Program Tumor Repository. For each lot of cells, the Repository performed Applied Biosystems AmpFLSTR Identifiler testing with PCR amplification to confirm consistency with the published Identifier STR profile for each cell line. Cells were kept in continuous culture for no more than 20 passages. The optimal seeding densities for each of the cell lines at each time point assessed were determined prior to performing the concentration response studies. Briefly, the NCI60 human tumor lines were grown as monolayers in RPMI 1640 medium supplemented with 10% FBS and 2 mmol/L L-glutamine.
An additional 2 lines were from the NCI60 cell line panel including melanomas, MALME-3M and SK-MEL-2. Pooled donor human umbilical vein endothelial cells (HUVEC, Lonza, cat. CC-2519) and human mesenchymal stem cells (hMSC, Lonza, cat. PT-2501) were purchased from Lonza (Walkersville, MD).
PDMR cell lines were grown in complete medium (DC medium): Dulbecco's modified Eagle's medium (DMEM)/F12 supplemented with 5% fetal bovine serum (FBS), 2 mM L-glutamine, 100 U/mL penicillin and 100 µg/ml streptomycin, 0.4 µg/ml hydrocortisone, 10 ng/ml epidermal growth factor (EGF) recombinant human protein, 24 µg/mL adenine, and 0.1 mg/mL primocin. During culture from frozen stock vials, PDMR cells were cultured in the same medium containing 10 µM Y-27632 (see Table 3). The PDCs were cultured in complete DMEM/F12 media without 10 microM Y-27632 dihydrochloride for at least two passages prior to the screen. The pooled donor HUVEC and hMSC were cultured in endothelial cell growth medium 2 (PromoCell, Heidelberg, Germany, cat. C-22011) and mesenchymal stem cell growth medium 2 (PromoCell, cat. C-28009), respectively. For all experiments, HUVEC and hMSC were used at passages </=5.
For the pre-screen, cell seeding densities were determined from a titration spanning the range from 5,000 to 313 cells per well. The mct-spheroids including 60% malignant cells, 25% HUVEC and 15% MSC dispensed as a mixture into U-bottom Ultra-Low Attachment 384-well plates (Corning, NY)
High-throughput Drug Combination Screening.
Prior to their inoculation into 384-well plates, malignant cells, HUVEC, and hMSC were removed from T flasks using TrypLE express (Thermo Fisher Scientific, cat. 12605036) and harvested by centrifugation for 5 min at 233 x g. […]

[1] = curve of first compound, second compound 0.3 µM
[2] = curve of first compound, second compound 0.949 µM
[3] = curve of first compound, second compound 3 µM
[4] = curve of first compound, second compound 9.49 µM
[5] = curve of first compound, second compound 30 µM
[6] = second compound 0.3 µM, first compound 0.000316 µM
[7] = second compound 0.3 µM, first compound 0.001 µM
[8] = second compound 0.3 µM, first compound 0.00316 µM
[9] = second compound 0.3 µM, first compound 0.01 µM
[10] = second compound 0.3 µM, first compound 0.0316 µM
[11] = second compound 0.3 µM, first compound 0.1 µM
[12] = second compound 0.949 µM, first compound 0.000316 µM
[13] = second compound 0.949 µM, first compound 0.001 µM
[14] = second compound 0.949 µM, first compound 0.00316 µM
[15] = second compound 0.949 µM, first compound 0.01 µM
[16] = second compound 0.949 µM, first compound 0.0316 µM
[17] = second compound 0.949 µM, first compound 0.1 µM
[18] = second compound 3 µM, first compound 0.000316 µM
[19] = second compound 3 µM, first compound 0.001 µM
[20] = second compound 3 µM, first compound 0.00316 µM
[21] = second compound 3 µM, first compound 0.01 µM
[22] = second compound 3 µM, first compound 0.0316 µM
[23] = second compound 3 µM, first compound 0.1 µM
[24] = second compound 9.49 µM, first compound 0.000316 µM
[25] = second compound 9.49 µM, first compound 0.001 µM
[26] = second compound 9.49 µM, first compound 0.00316 µM
[27] = second compound 9.49 µM, first compound 0.01 µM
[28] = second compound 9.49 µM, first compound 0.0316 µM
[29] = second compound 9.49 µM, first compound 0.1 µM
[30] = second compound 30 µM, first compound 0.000316 µM
[31] = second compound 30 µM, first compound 0.001 µM
[32] = second compound 30 µM, first compound 0.00316 µM
[33] = second compound 30 µM, first compound 0.01 µM
[34] = second compound 30 µM, first compound 0.0316 µM
[35] = second compound 30 µM, first compound 0.1 µM

Row | SMILES | IC50 [1] | IC50 [2] | IC50 [3] | IC50 [4] | IC50 [5] | viability, T/C [6] | viability, T/C [7] | viability, T/C [8] | viability, T/C [9] | viability, T/C [10] | viability, T/C [11] | viability, T/C [12] | viability, T/C [13] | viability, T/C [14] | viability, T/C [15] | viability, T/C [16] | viability, T/C [17] | viability, T/C [18] | viability, T/C [19] | viability, T/C [20] | also measured
1 | CC(C)CC(NC(=O)CNC(=O)c1cc(Cl)ccc1Cl)B1OC(=O)CC(CC(=O)O)(C(=O)O)O1 (stereo not given) | – | – | – | – | – | – | – | – | – | – | – | – | – | – | – | – | – | – | – | – | viability, T/C (compound 0.000316 µM): 89.2% and 116%; viability, T/C (compound 0.001 µM): 86.8% and 91.6%; viability, T/C (compound 0.00316 µM): 88.2% and 98.5%; viability, T/C (compound 0.01 µM): 88.2% and 96%; viability, T/C (compound 0.0316 µM): 7.17% and 7.01%; viability, T/C (compound 0.1 µM): 0.41% and 1.22%; IC50 (curve of compound): 17.2 nM and 18.1 nM
2 | CC(C)NCC(C(=O)N1CCN(c2ncnc3c2C(C)CC3O)CC1)c1ccc(Cl)cc1 (stereo not given) | – | – | – | – | – | – | – | – | – | – | – | – | – | – | – | – | – | – | – | – | viability, T/C (compound 9.49 µM): 76% [middle of 10 runs]; viability, T/C (compound 30 µM): 50.4% [middle of 10 runs]; IC50 (compound alone, run of 02/20/2020): > 30000 nM and 23200 nM and 14800 nM
3 | CC(C)n1nc(-c2ccc3oc(N)nc3c2)c2c(N)ncnc21 + CC(C)NCC(C(=O)N1CCN(c2ncnc3c2C(C)CC3O)CC1)c1ccc(Cl)cc1 | 12.1 nM | 7.82 nM | 5.3 nM | 1.81 nM | < 0.316 nM | 87.8% | 76.1% | 69.3% | 55.7% | 31.3% | 11.2% | 81.6% | 74.7% | 65.6% | 46.6% | 23.1% | 10% | 67.6% | 61.1% | 52.4% | viability, T/C [21]: 45.8%; viability, T/C [22]: 14.5%; viability, T/C [23]: 6.89%; viability, T/C [24]: 62%; viability, T/C [25]: 56.7%; viability, T/C [26]: 43.7%; viability, T/C [27]: 22.5%; viability, T/C [28]: 9.06%; viability, T/C [29]: 4.23%; viability, T/C [30]: 36.5%; viability, T/C [31]: 37.5%; viability, T/C [32]: 28.6%; viability, T/C [33]: 17.2%; viability, T/C [34]: 8.52%; viability, T/C [35]: 4.01%
4 | COC1CC2CCC(C)C(O)(O2)C(=O)C(=O)N2CCCCC2C(=O)OC(C(C)CC2CCC(OCCO)C(OC)C2)CC(=O)C(C)C=C(C)C(O)C(OC)C(=O)C(C)CC(C)C=CC=CC=C1C (stereo not given) + CC(C)NCC(C(=O)N1CCN(c2ncnc3c2C(C)CC3O)CC1)c1ccc(Cl)cc1 | > 100 nM | 8.97 nM | 1.51 nM | 0.42 nM | < 0.316 nM | 87.7% | 69.2% | 64.3% | 55.7% | 53.8% | 51.3% | 89.9% | 71.5% | 49.9% | 51.8% | 50% | 42.4% | 70.5% | 55.4% | 40.7% | viability, T/C [21]: 32.1%; viability, T/C [22]: 38%; viability, T/C [23]: 29.5%; viability, T/C [24]: 54.4%; viability, T/C [25]: 37.1%; viability, T/C [26]: 26%; viability, T/C [27]: 26.4%; viability, T/C [28]: 23.6%; viability, T/C [29]: 21.8%; viability, T/C [30]: 36.2%; viability, T/C [31]: 32.8%; viability, T/C [32]: 20.7%; viability, T/C [33]: 22.1%; viability, T/C [34]: 19.9%; viability, T/C [35]: 19.1%
